Test results from paper PMC9090415, “Discovery of small molecule inhibitors of Plasmodium falciparum apicoplast DNA polymerase” (Journal of Enzyme Inhibition and Medicinal Chemistry, 2022).

Biological target: P. falciparum apicoplast DNA polymerase (Pf-apPOL) (Plasmodium falciparum, UniProt Q8ILY1)
Assay: Fluorescence-based high-throughput DNA polymerase assay (molecular beacon), primary screen and dose-response
Assay type: biochemical
In short: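 Single-point screening used 10 µM compound with 20 nM polymerase, 20 nM hairpin substrate and 6 µM dNTPs for 90 min at 25 °C. Confirmatory titrations (2.5–80 µM) followed fluorescence at three times, and IC50 was derived from a fit including a cooperativity term n.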

[1] = supplemental file 2, sheet IC50 nontoxic compounds; Pf-apPOL

P. falciparum apicoplast DNA polymerase (Pf-apPOL), sequence (Q8ILY1 entry or part of it): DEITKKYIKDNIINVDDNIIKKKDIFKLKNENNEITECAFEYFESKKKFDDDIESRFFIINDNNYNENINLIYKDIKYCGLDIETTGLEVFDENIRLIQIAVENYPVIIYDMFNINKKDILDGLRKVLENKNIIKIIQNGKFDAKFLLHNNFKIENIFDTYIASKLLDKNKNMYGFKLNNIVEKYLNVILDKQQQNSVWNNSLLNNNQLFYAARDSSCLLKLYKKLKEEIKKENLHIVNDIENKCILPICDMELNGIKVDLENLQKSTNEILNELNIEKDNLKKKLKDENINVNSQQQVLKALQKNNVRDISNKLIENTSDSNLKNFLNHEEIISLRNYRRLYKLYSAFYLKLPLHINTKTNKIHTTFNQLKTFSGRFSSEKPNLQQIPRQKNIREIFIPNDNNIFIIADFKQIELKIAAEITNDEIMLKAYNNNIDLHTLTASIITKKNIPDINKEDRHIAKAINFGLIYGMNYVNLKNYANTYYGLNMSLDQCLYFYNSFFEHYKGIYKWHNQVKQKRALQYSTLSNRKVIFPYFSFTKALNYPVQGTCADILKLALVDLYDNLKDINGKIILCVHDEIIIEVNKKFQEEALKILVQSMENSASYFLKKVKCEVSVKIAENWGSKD

## COc1ccc(-c2occ(C(=O)O)c2C(=O)O)cc1 [KU0021536]
DRC-1; concentration 2.5; 10'
  % inhibition Apo pol 10': 12.66%
DRC-1; concentration 2.5; 90'
  % inhibition Apol 90': 6.208%
DRC-1; concentration 2.5; 180'
  % inhibition apPOL 180': 0.2787%
DRC-1; concentration 5; 10'
  % inhibition Apo pol 10': 21.9361%
DRC-1; concentration 5; 90'
  % inhibition Apol 90': 18.5169%
DRC-1; concentration 5; 180'
  % inhibition apPOL 180': 12.9539%
DRC-1; concentration 10; 10'
  % inhibition Apo pol 10': 43.1098%
DRC-1; concentration 10; 90'
  % inhibition Apol 90': 39.5848%
DRC-1; concentration 10; 180'
  % inhibition apPOL 180': 35.5357%
DRC-1; concentration 20; 10'
  % inhibition Apo pol 10': 66.1228%
DRC-1; concentration 20; 90'
  % inhibition Apol 90': 63.2397%
DRC-1; concentration 20; 180'
  % inhibition apPOL 180': 62.8921%
DRC-1; concentration 40; 10'
  % inhibition Apo pol 10': 86.5866%
DRC-1; concentration 40; 90'
  % inhibition Apol 90': 84.6266%
DRC-1; concentration 40; 180'
  % inhibition apPOL 180': 85.4203%
DRC-1; concentration 80 (unit not given); 10'
  % inhibition Apo pol 10': 93.5468%
DRC-1; concentration 80; 90'
  % inhibition Apol 90': 92.3135%
DRC-1; concentration 80; 180'
  % inhibition apPOL 180': 92.8082%
DRC-2; 5'; concentration 40
  % inhibition Apo pol 5': 50%
DRC-2; 40'; concentration 10
  % inhibition Apol 40': 48%
DRC-2; 90'; concentration 10
  % inhibition ApPOL 90': 50%
DRC-2; 90'; concentration 80
  % inhibition ApPOL 90': 77%
DRC-2; 180'; concentration 10
  % inhibition apPOL 180': 48%
DRC-2; 180'; concentration 40
  % inhibition apPOL 180': 77%
DRC-2; concentration 2.5; 5'
  % inhibition Apo pol 5': 7%
DRC-2; concentration 2.5; 40'
  % inhibition Apol 40': 17%
DRC-2; concentration 2.5; 90'
  % inhibition ApPOL 90': 16%
DRC-2; concentration 2.5; 180'
  % inhibition apPOL 180': 10%
DRC-2; concentration 5; 5'
  % inhibition Apo pol 5': 21%
DRC-2; concentration 5; 40'
  % inhibition Apol 40': 30%
DRC-2; concentration 5; 90'
  % inhibition ApPOL 90': 32%
DRC-2; concentration 5; 180'
  % inhibition apPOL 180': 27%
DRC-2; concentration 10; 5'
  % inhibition Apo pol 5': 34%
DRC-2; concentration 10; 40'
  % inhibition Apol 40': 48%
DRC-2; concentration 10; 90'
  % inhibition ApPOL 90': 50%
DRC-2; concentration 10; 180'
  % inhibition apPOL 180': 48%
DRC-2; concentration 20; 5'
  % inhibition Apo pol 5': 43%
DRC-2; concentration 20; 40'
  % inhibition Apol 40': 62%
DRC-2; concentration 20; 90'
  % inhibition ApPOL 90': 66%
DRC-2; concentration 20; 180'
  % inhibition apPOL 180': 67%
DRC-2; concentration 40; 5'
  % inhibition Apo pol 5': 50%
DRC-2; concentration 40; 40'
  % inhibition Apol 40': 70%
DRC-2; concentration 40; 90'
  % inhibition ApPOL 90': 75%
DRC-2; concentration 40; 180'
  % inhibition apPOL 180': 77%
DRC-2; concentration 80; 5'
  % inhibition Apo pol 5': 51%
DRC-2; concentration 80; 40'
  % inhibition Apol 40': 74%
DRC-2; concentration 80; 90'
  % inhibition ApPOL 90': 77%
DRC-2; concentration 80; 180'
  % inhibition apPOL 180': 80%
Primary screen value of the 186 hits; unit not given; 90 min, 10 µM
  DNA Pol: 29
Primary screen value; head prints only 'DNA Pol'; 90 min, 10 µM
  DNA Pol: 29

## COc1ccc(S(=O)(=O)/N=C2\NC(=O)/C(=C3\C(=O)Nc4ccc([N+](=O)[O-])cc43)S2)cc1 [KU0054985]
'DNA Pol' of the 186 hits list (primary screen result); unit not given; 90 min, 10 µM
  DNA Pol: 41
DRC-1; 10'; concentration 2.5
  % inhibition Apo pol 10': 18.5864%
DRC-1; 10'; concentration 5
  % inhibition Apo pol 10': 36.9179%
DRC-1; 10'; concentration 10
  % inhibition Apo pol 10': 67.7559%
DRC-1; 10'; concentration 20
  % inhibition Apo pol 10': 96.4602%
DRC-1; 10'; concentration 40
  % inhibition Apo pol 10': 99.5336%
DRC-1; 10'; concentration 80
  % inhibition Apo pol 10': 99.5405%
DRC-1; 90'; concentration 2.5
  % inhibition Apol 90': 1.843%
DRC-1; 90'; concentration 5
  % inhibition Apol 90': 6.911%
DRC-1; 90'; concentration 10
  % inhibition Apol 90': 25.9736%
DRC-1; 90'; concentration 20
  % inhibition Apol 90': 66.8469%
DRC-1; 90'; concentration 40
  % inhibition Apol 90': 95.4915%
DRC-1; 90'; concentration 80
  % inhibition Apol 90': 99.0869%
DRC-1; 180'; concentration 2.5
  % inhibition apPOL 180': -5.136%
DRC-1; 180'; concentration 5
  % inhibition apPOL 180': -1.681%
DRC-1; 180'; concentration 10
  % inhibition apPOL 180': 15.3394%
DRC-1; 180'; concentration 20
  % inhibition apPOL 180': 51.5386%
DRC-1; 180'; concentration 40
  % inhibition apPOL 180': 94.1836%
DRC-1; 180'; concentration 80
  % inhibition apPOL 180': 99.3305%
DRC-2; 5'; concentration 2.5
  % inhibition Apo pol 5': 4%
DRC-2; 5'; concentration 5
  % inhibition Apo pol 5': 9%
DRC-2; 5'; concentration 10
  % inhibition Apo pol 5': 30%
DRC-2; 5'; concentration 20
  % inhibition Apo pol 5': 52%
DRC-2; 5'; concentration 40
  % inhibition Apo pol 5': 63%
DRC-2; 5'; concentration 80
  % inhibition Apo pol 5': 67%
DRC-2; 40'; concentration 2.5
  % inhibition Apol 40': 3.68%
DRC-2; 40'; concentration 5
  % inhibition Apol 40': 6%
DRC-2; 40'; concentration 10
  % inhibition Apol 40': 20%
DRC-2; 40'; concentration 20
  % inhibition Apol 40': 38%
DRC-2; 40'; concentration 40
  % inhibition Apol 40': 74%
DRC-2; 40'; concentration 80
  % inhibition Apol 40': 82%
DRC-2; 90'; concentration 2.5
  % inhibition ApPOL 90': 3.52%
DRC-2; 90'; concentration 5
  % inhibition ApPOL 90': 5%
DRC-2; 90'; concentration 10
  % inhibition ApPOL 90': 18%
DRC-2; 90'; concentration 20
  % inhibition ApPOL 90': 33%
DRC-2; 90'; concentration 40
  % inhibition ApPOL 90': 75%
DRC-2; 90'; concentration 80
  % inhibition ApPOL 90': 85%
DRC-2; 180'; concentration 2.5
  % inhibition apPOL 180': 4.38%
DRC-2; 180'; concentration 5
  % inhibition apPOL 180': 2.14%
DRC-2; 180'; concentration 10
  % inhibition apPOL 180': 13%
DRC-2; 180'; concentration 20
  % inhibition apPOL 180': 26%
DRC-2; 180'; concentration 40
  % inhibition apPOL 180': 72%
DRC-2; 180'; concentration 80
  % inhibition apPOL 180': 88%
Primary screen value of the library well; unit not given; 90 min, 10 µM
  DNA Pol: 41

## Cc1cccc(CC(=O)N2CCc3c(nc4cc(-c5ccccc5)[nH]n4c3=O)C2)c1 [Molecule 12]
[1]
  IC50: 5.56 µM

## CN(C)C=CC(=O)c1ccccn1 [Molecule 64]
[1]
  IC50: 18.5 µM

## CS(=O)(=O)c1cccc(C(=O)Nc2nnc(-c3ccno3)o2)c1 [KU0171319]
186 hits, value of the hit list (primary screen); unit not given; 90 min, 10 µM
  DNA Pol: 45
DRC-1; 10'; concentration 2.5
  % inhibition Apo pol 10': 6.657%
DRC-1; 10'; concentration 5
  % inhibition Apo pol 10': 14.8177%
DRC-1; 10'; concentration 10
  % inhibition Apo pol 10': 36.7259%
DRC-1; 10'; concentration 20
  % inhibition Apo pol 10': 44.3674%
DRC-1; 10'; concentration 40
  % inhibition Apo pol 10': 60.0862%
DRC-1; 10'; concentration 80
  % inhibition Apo pol 10': 69.7787%
DRC-1; 90'; concentration 2.5
  % inhibition Apol 90': -3.363%
DRC-1; 90'; concentration 5
  % inhibition Apol 90': 1.476%
DRC-1; 90'; concentration 10
  % inhibition Apol 90': 14.1125%
DRC-1; 90'; concentration 20
  % inhibition Apol 90': 18.6112%
DRC-1; 90'; concentration 40
  % inhibition Apol 90': 31.6807%
DRC-1; 90'; concentration 80
  % inhibition Apol 90': 46.8389%
DRC-1; 180'; concentration 2.5
  % inhibition apPOL 180': -9.274%
DRC-1; 180'; concentration 5
  % inhibition apPOL 180': -6.316%
DRC-1; 180'; concentration 10
  % inhibition apPOL 180': 0.8537%
DRC-1; 180'; concentration 20
  % inhibition apPOL 180': 2.328%
DRC-1; 180'; concentration 40
  % inhibition apPOL 180': 13.3473%
DRC-1; 180'; concentration 80
  % inhibition apPOL 180': 27.8767%
DRC-2, 5', concentration 2.5
  % inhibition Apo pol 5': 8%
DRC-2, 5', concentration 5
  % inhibition Apo pol 5': 13%
DRC-2, 5', concentration 10
  % inhibition Apo pol 5': 24%
DRC-2, 5', concentration 20
  % inhibition Apo pol 5': 29%
DRC-2, 5', concentration 40
  % inhibition Apo pol 5': 32%
DRC-2, 5', concentration 80
  % inhibition Apo pol 5': 22%
DRC-2, 40', concentration 2.5
  % inhibition Apol 40': 1.54%
DRC-2, 40', concentration 5
  % inhibition Apol 40': 4.6%
DRC-2, 40', concentration 10
  % inhibition Apol 40': 13%
DRC-2, 40', concentration 20
  % inhibition Apol 40': 17%
DRC-2, 40', concentration 40
  % inhibition Apol 40': 28%
DRC-2, 40', concentration 80
  % inhibition Apol 40': 35%
DRC-2, 90', concentration 2.5
  % inhibition ApPOL 90': -0.356%
DRC-2, 90', concentration 5
  % inhibition ApPOL 90': 0.372%
DRC-2, 90', concentration 10
  % inhibition ApPOL 90': 8%
DRC-2, 90', concentration 20
  % inhibition ApPOL 90': 11%
DRC-2, 90', concentration 40
  % inhibition ApPOL 90': 21%
DRC-2, 90', concentration 80
  % inhibition ApPOL 90': 34%
DRC-2, 180', concentration 2.5
  % inhibition apPOL 180': -5.4%
DRC-2, 180', concentration 5
  % inhibition apPOL 180': -8%
DRC-2, 180', concentration 10
  % inhibition apPOL 180': -3%
DRC-2, 180', concentration 20
  % inhibition apPOL 180': -2.43%
DRC-2, 180', concentration 40
  % inhibition apPOL 180': 7.43%
DRC-2, 180', concentration 80
  % inhibition apPOL 180': 26%
DRC-2; 5'; concentration 2.5
  % inhibition Apo pol 5': 8%
DRC-2; 5'; concentration 5
  % inhibition Apo pol 5': 13%
DRC-2; 40'; concentration 10
  % inhibition Apol 40': 13%
DRC-2; 90'; concentration 10
  % inhibition ApPOL 90': 8%
Primary screen value, 'DNA Pol' only; 90 min, 10 µM
  DNA Pol: 45

## CSC1=C(C#N)C(=C(C#N)C#N)NC(c2ccccc2)=N1 [Molecule 2]
[1]
  IC50: 5.66 µM
